Measured values as given in ChEMBL document CHEMBL4196044, “Design, synthesis and ability of non-gold complexed substituted purine derivatives to inhibit LPS-induced inflammatory response” (Eur J Med Chem, 2018).
Active and inactive are the calls of the source. The calls are words filed in the database; no cut-off is given here.

Columns and labels:
RAW264.7 [1] = test: Inhibition of LPS-induced ERK phosphorylation in mouse RAW264.7 cells at 10 uM measured after 24 hrs by Western blot method; format: cell-based
RAW264.7 [2] = test: Anti-inflammatory activity in mouse RAW264.7 cells assessed as inhibition of LPS-induced iNOS mRNA expression at 10 uM after 24 hrs by RT-qPCR analysis; format: functional, cell-based
RAW264.7 [3] = test: Anti-inflammatory activity in mouse RAW264.7 cells assessed as inhibition of LPS-induced TNF-alpha production pretreated for 2 hrs followed by LPS stimulation measured after over night incubation by ELISA; format: functional, cell-based
RAW264.7 [4] = test: Anti-inflammatory activity in mouse RAW264.7 cells assessed as inhibition of LPS-induced PGE2 production pretreated for 2 hrs followed by LPS stimulation measured after over night incubation by ELISA; format: functional, cell-based
RAW264.7 [5] = test: Inhibition of LPS-induced JNK phosphorylation in mouse RAW264.7 cells at 10 uM measured after 24 hrs by Western blot method; format: cell-based
RAW264.7 [6] = test: Anti-inflammatory activity in mouse RAW264.7 cells assessed as inhibition of LPS-induced TNF-alpha production at 10 uM pretreated for 2 hrs followed by LPS stimulation measured after over night incubation by ELISA relative to control; format: functional
RAW264.7 [7] = test: Anti-inflammatory activity in mouse RAW264.7 cells assessed as inhibition of LPS-induced COX-2 mRNA expression at 10 uM after 24 hrs by RT-qPCR analysis; format: functional, cell-based
Mus musculus [8] = test: Anti-inflammatory activity in ICR mouse assessed as inhibition of carrageenan-induced hind paw edema volume at 10 mg/kg administered via gavage treated for 30 mins post carrageenan challenge measured after 2 to 5 hrs; format: functional, organism-based
[9] = target: Transcription factor p65 (Mus musculus) (UniProt Q04207); test: Inhibition of LPS-induced NF-kappaB-p65 nuclear translocation in mouse RAW264.7 cells at 10 uM by DAPI staining-based immunofluorescence analysis; format: cell-based
Mus musculus [10] = test: Anti-inflammatory activity in ICR mouse assessed as inhibition of carrageenan-induced hind paw edema volume at 10 mg/kg administered via gavage treated for 30 mins post carrageenan challenge measured after 2 to 3 hrs; format: functional, organism-based
RAW264.7 [11] = test: Anti-inflammatory activity in mouse RAW264.7 cells assessed as inhibition of LPS-induced NO release pretreated for 2 hrs followed by LPS stimulation measured after 48 hrs […]; format: functional, cell-based
RAW264.7 [12] = test: Anti-inflammatory activity in mouse RAW264.7 cells assessed as inhibition of LPS-induced IL-1beta production at 10 uM pretreated for 2 hrs followed by LPS stimulation measured after over night incubation by ELISA relative to control; format: functional
[13] = target: T1, NF-kappa-B inhibitor alpha (Mus musculus) (UniProt Q9Z1E3); test: Inhibition of LPS-induced IkappaBalpha phosphorylation in mouse RAW264.7 cells at 10 uM measured after 24 hrs by Western blot method; format: cell-based
T1 sequence (whole entry): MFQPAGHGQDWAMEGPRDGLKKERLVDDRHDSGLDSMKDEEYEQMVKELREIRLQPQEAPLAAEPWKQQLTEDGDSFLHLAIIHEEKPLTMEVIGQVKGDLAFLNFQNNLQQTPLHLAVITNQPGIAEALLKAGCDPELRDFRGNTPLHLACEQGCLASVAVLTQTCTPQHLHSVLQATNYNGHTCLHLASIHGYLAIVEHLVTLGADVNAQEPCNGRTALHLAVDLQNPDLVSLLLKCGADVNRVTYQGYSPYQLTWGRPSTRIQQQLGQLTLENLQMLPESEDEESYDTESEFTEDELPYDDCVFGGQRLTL

RAW264.7 [14] = test: Anti-inflammatory activity in mouse RAW264.7 cells assessed as inhibition of LPS-induced IL-6 production pretreated for 2 hrs followed by LPS stimulation measured after over night incubation by ELISA; format: functional, cell-based
RAW264.7 [15] = test: Anti-inflammatory activity in mouse RAW264.7 cells assessed as inhibition of LPS-induced IL-1beta production pretreated for 2 hrs followed by LPS stimulation measured after over night incubation by ELISA; format: functional, cell-based
[16] = target: MAP kinase p38 (Mus musculus) (UniProt P47811+O08911+Q9WUI1+Q9Z1B7); test: Inhibition of LPS-induced p38 phosphorylation in mouse RAW264.7 cells at 10 uM measured after 24 hrs by Western blot method; format: cell-based
[17] = Cytotoxicity against human THP1 cells assessed as cell viability at 10 uM by CellTiter-Glo luminescent assay relative to control; format: cell-based; details: THP-1 cells, read-out: Activity
Mus musculus [18] = test: Anti-inflammatory activity in ICR mouse assessed as inhibition of carrageenan-induced hind paw edema volume at 10 mg/kg administered via gavage treated for 30 mins post carrageenan challenge measured after 3 to 5 hrs; format: functional, organism-based

Sequence of Transcription factor p65 (Mus musculus) (Q04207 whole entry): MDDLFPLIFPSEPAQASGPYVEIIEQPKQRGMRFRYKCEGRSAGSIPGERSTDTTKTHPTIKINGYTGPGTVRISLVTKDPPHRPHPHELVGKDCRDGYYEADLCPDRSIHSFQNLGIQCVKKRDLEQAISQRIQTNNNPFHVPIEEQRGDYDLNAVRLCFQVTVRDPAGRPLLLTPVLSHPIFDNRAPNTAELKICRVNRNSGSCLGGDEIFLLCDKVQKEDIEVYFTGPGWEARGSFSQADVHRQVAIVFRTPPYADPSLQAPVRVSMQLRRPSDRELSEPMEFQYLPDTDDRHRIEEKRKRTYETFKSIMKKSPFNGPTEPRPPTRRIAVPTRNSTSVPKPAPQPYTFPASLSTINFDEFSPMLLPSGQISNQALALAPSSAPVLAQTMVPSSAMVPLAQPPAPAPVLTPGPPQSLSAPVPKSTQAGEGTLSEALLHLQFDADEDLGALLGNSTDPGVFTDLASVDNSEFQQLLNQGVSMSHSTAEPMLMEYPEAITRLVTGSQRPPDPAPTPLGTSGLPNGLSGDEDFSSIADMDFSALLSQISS

In the case of Clc1ccccc1CNc1[nH]cnc2ncnc1-2, the inhibition (RAW264.7 [1]) is reported as “Active”, the inhibition (RAW264.7 [2]) is reported as “Active” and the inhibition (RAW264.7 [3]) is reported as “Dose-dependent effect”. The inhibition (RAW264.7 [4]) was “Dose-dependent effect”, the inhibition (RAW264.7 [5]) was “Active” and the inhibition at 10 µM (RAW264.7 [6]) was 86.2%. For the same molecule, the inhibition (RAW264.7 [7]) was “Active”, the inhibition (Mus musculus [8]) was “Active” and the inhibition [9] was “Active”. The inhibition (Mus musculus [10]) was “Active”, the IC50 (RAW264.7 [11]) was 3.54 µM and the inhibition at 10 µM (RAW264.7 [12]) was 89%. The inhibition [13] was “Active”, the inhibition (RAW264.7 [14]) was “Dose-dependent effect” and the inhibition (RAW264.7 [15]) was “Dose-dependent effect”. For the same molecule, the inhibition [16] was “Active”.
Molecule Oc1ccc(Nc2ncnc3[nH]cnc23)cc1 has an inhibition at 10 µM (RAW264.7 [6]) of 18.5%, a viability at 10 µM [17] of 95.9% and an inhibition at 10 µM (RAW264.7 [12]) of 12.4%.
c1coc(CNc2ncnc3[nH]cnc23)c1 [KINETIN] showed an inhibition at 10 µM (RAW264.7 [6]) of 45.9%, a viability at 10 µM [17] of 107% and an inhibition at 10 µM (RAW264.7 [12]) of -19.5%.
Clc1ccccc1CNc1ncnc2nc[nH]c12 showed a viability at 10 µM [17] of 93.8%.
For COc1cccc(Nc2ncnc3[nH]cnc23)c1, the inhibition (RAW264.7 [1]) was “Active”, the inhibition (RAW264.7 [2]) was “Active” and the inhibition (RAW264.7 [3]) was “Dose-dependent effect”. For the same molecule, the inhibition (RAW264.7 [4]) was “Dose-dependent effect”, the inhibition (RAW264.7 [5]) was “Active” and the inhibition at 10 µM (RAW264.7 [6]) was 69.8%. For the same molecule, the inhibition (RAW264.7 [7]) was “Active”, the viability at 10 µM [17] was 90.7% and the inhibition [9] was “Active”. For the same molecule, the inhibition (Mus musculus [10]) was “Active”, the IC50 (RAW264.7 [11]) was 3.38 µM and the inhibition at 10 µM (RAW264.7 [12]) was 88.9%. For the same molecule, the inhibition [13] was “Active”, the inhibition (RAW264.7 [14]) was “Dose-dependent effect” and the inhibition (RAW264.7 [15]) was “Dose-dependent effect”. For the same molecule, the inhibition [16] was “Active”.
COc1cc(Cn2cnc3c(NCc4ccccc4Cl)ncnc32)cc(OC)c1 showed an inhibition at 10 µM (RAW264.7 [6]) of 9.65%, a viability at 10 µM [17] of 90.2% and an inhibition at 10 µM (RAW264.7 [12]) of 19.8%.
With c1nc2nc[nH]c(N3CCCC3)c-2n1 the inhibition at 10 µM (RAW264.7 [6]) was 11.7%, the viability at 10 µM [17] was 91.1% and the inhibition at 10 µM (RAW264.7 [12]) was -9.43%.
Molecule Clc1ccc(Nc2ncnc3[nH]cnc23)cc1 has an inhibition at 10 µM (RAW264.7 [6]) of 16.1%, a viability at 10 µM [17] of 92% and an inhibition at 10 µM (RAW264.7 [12]) of 28.6%.
For Clc1cccc(Nc2ncnc3[nH]cnc23)c1, the inhibition at 10 µM (RAW264.7 [6]) was 18.5%, the viability at 10 µM [17] was 91% and the inhibition at 10 µM (RAW264.7 [12]) was 12.2%.
With CCCn1cnc2c(NCc3ccccc3Cl)ncnc21 the inhibition at 10 µM (RAW264.7 [6]) was 22.4%, the viability at 10 µM [17] was 103% and the inhibition at 10 µM (RAW264.7 [12]) was 14.1%.
For Fc1cc(Nc2ncnc3[nH]cnc23)ccc1Cl, the inhibition (RAW264.7 [1]) was “Active”, the inhibition (RAW264.7 [2]) was “Active” and the inhibition (RAW264.7 [3]) was “Dose-dependent effect”. For the same molecule, the inhibition (RAW264.7 [4]) was “Dose-dependent effect”, the inhibition (RAW264.7 [5]) was “Active” and the inhibition at 10 µM (RAW264.7 [6]) was 71%. The inhibition (RAW264.7 [7]) was “Active”, the viability at 10 µM [17] was 99.3% and the inhibition [9] was “Active”. The inhibition (Mus musculus [10]) was “Active”, the IC50 (RAW264.7 [11]) was 4.43 µM and the inhibition at 10 µM (RAW264.7 [12]) was 84.2%. For the same molecule, the inhibition [13] was “Active”, the inhibition (RAW264.7 [14]) was “Dose-dependent effect” and the inhibition (RAW264.7 [15]) was “Dose-dependent effect”. For the same molecule, the inhibition (Mus musculus [18]) was “Active” and the inhibition [16] was “Active”.
Work on COc1ccc(Nc2ncnc3[nH]cnc23)cc1 yielded an inhibition at 10 µM (RAW264.7 [6]) of 25.6%, a viability at 10 µM [17] of 100% and an inhibition at 10 µM (RAW264.7 [12]) of 7.29%.
Molecule Fc1ccc(CNc2ncnc3nc[nH]c23)cc1 has an inhibition at 10 µM (RAW264.7 [6]) of 22.4%, a viability at 10 µM [17] of 92.9% and an inhibition at 10 µM (RAW264.7 [12]) of 14.6%.
In the case of CC(=O)NS(=O)(=O)c1ccc(Nc2ncnc3[nH]cnc23)cc1, the inhibition at 10 µM (RAW264.7 [6]) is reported as 12.4%, the viability at 10 µM [17] is reported as 90.7% and the inhibition at 10 µM (RAW264.7 [12]) is reported as 16.1%.
